Measured values published in patent publication US12097188B2, “Compositions and methods for the treatment of macular degeneration” (Aldeyra Therapeutics, Inc., priority 2009, dated 2024).
Like-named read-outs stand apart in the source and are kept apart here.

Key:
visual cycle [1] = experiment: Functional biological activity in the retina: visual cycle inhibition / dark adaptation rate by ERG; conditions: for effect on normal function of the retina: mouse, in vivo
Text: (§2) The protocol for measuring DA rates by ERG is based on the kinetics of functional visual recovery from photo-bleaching of visual pigment by brief exposure to extremely bright light.
(§3) A retinoid useful for this purpose is 13-cis-retinoic acid (RA, also known as isotretinoin).

in vivo = experiment: in vivo; design: species or system C57BL/6 mice; conditions: ip, 10 mg/kg
Text: (§1) The target tissue, for the biological activity of compounds which reversibly react with RAL, e.g. Compounds A, B and C, is the outer segment of retinal photoreceptor cells.

[2] = Ocular levels of 14C-Compound A in the retina and RPE of rabbits (LSC); type: in vivo, Dutch belted rabbits; conditions: for Amount of 14C-compound A in retina and RPE at tmax: rabbit, single 40 μL TO eyedrop, mean of 6 eyes
Procedure: Dutch belted rabbits were dosed TO with a single 40 μL eyedrop containing either 0.50%, 0.15% or 0.05% weight/volume ^14C-Compound A in 20%, 6% or 2% weight/volume, respectively, β-cyclodextrin sulfobutylether sodium salt in phosphate-buffered saline (Table 1). At different times after dosing the eyes of the rabbits were enucleated, dissected and the amount of ^14C-Compound A in the retina and RPE together was measured by LSC. Each value represents the mean value from 6 eyes.

visual cycle [3] = conditions: mouse, in vivo
Text: as §2, §3

A2E formation = A2E formation in the abcr -/- mouse after repeated IP dosing; type: in vivo; conditions: 10 mg/kg IP, repeated daily for 56 days, p<0.01
Text: as §1

## CC(C)(O)c1cc2nc(-c3ccccc3)oc2cc1N [B]
Visual cycle [1]
  effect on normal function of the retina: do not alter the normal function of the retina

## CC(C)(O)c1cc2oc(-c3ccccc3)nc2cc1N [C]
Visual cycle [1]
  effect on normal function of the retina: do not alter the normal function of the retina

## CC(C)(O)c1nc2ccc(Cl)cc2cc1N [Compound A]
In vivo; C57BL/6, mouse
  Cmax: 14400 ng/g
In vivo; mouse
  Tmax in the posterior eyecup: Thirty
[2]; 0.05% w/v in 2% w/v βCSSA
  Amount of 14C-compound A in retina and RPE at tmax: 23.1 ng/g
[2]; 0.15% w/v in 6% w/v βCSSA
  Amount of 14C-compound A in retina and RPE at tmax: 47.0 ng/g
[2]; 0.50% w/v in 20% w/v βCSSA
  Amount of 14C-compound A in retina and RPE at tmax: 131 ng/g
[2]; within one hour of TO dosing
  amounts found in rabbit retina/RPE: Significant amounts
Visual cycle [3]
  effect on normal function of the retina: do not alter the normal function of the retina
  effect on rate of dark adaptation (DA): nor does it slow the rate of dark adaptation
  inhibition of the visual cycle: does not inhibit the visual cycle
A2E formation
  reduction of A2E formation: 71%

## CC1=C(/C=C/C(C)=C/C=C/C(C)=C\C(=O)O)C(C)(C)CCC1 [RA, 13-cis-retinoic acid, reference compound]
Visual cycle [1]; mice, IP 20 mg/kg (FIG. 3)
  visual cycle inhibition: show visual cycle inhibition
Visual cycle [1]; mice, TO one or two 30 μL eyedrops, 0.2% w/v RA in 20% w/v β-cyclodextrin sulfobutylether sodium salt in PBS (FIG. 3)
  inhibition of dark adaptation (DA): dose-responsive inhibition of DA similar to that observed after IP dosing
